Measurements taken from ChEMBL document CHEMBL4699600, “Design, Synthesis, and Biological Evaluation of Covalent Inhibitors of Focal Adhesion Kinase (FAK) against Human Malignant Glioblastoma” (J Med Chem, 2020).
The source made the active and inactive calls. The rule behind the calls is not given here.

Columns and labels:
[1] = biological target: Proto-oncogene tyrosine-protein kinase Src (Homo sapiens) (UniProt P12931); experiment: Inhibition of human recombinant Src at 100 nM in presence of [gamma33P]ATP by radiometric assay relative to control
[2] = biological target: Fibroblast growth factor receptor 1 (Homo sapiens) (UniProt P11362); experiment: Inhibition of human recombinant FGFR1 (456 to 765 residues) at 100 nM in presence of [gamma33P]ATP by radiometric assay relative to control
[3] = biological target: Insulin-like growth factor 1 receptor (Homo sapiens) (UniProt P08069); experiment: Inhibition of human recombinant IGF1R at 100 nM by [gamma-33ATP] radiometric assay relative to control
[4] = biological target: Mast/stem cell growth factor receptor Kit (Homo sapiens) (UniProt P10721); experiment: Inhibition of human recombinant c-kit at 100 nM in presence of [gamma33P]ATP by radiometric assay relative to control
Homo sapiens = organism: Homo sapiens; experiment: Inhibition of human recombinant Erk at 100 nM measured in presence of [33P]-ATP by radiometric analysis relative to control
[5] = biological target: Protein-tyrosine kinase 2-beta (Homo sapiens) (UniProt Q14289); experiment: Inhibition of recombinant human full length PYK2 at 100 nM in presence of [gamma32P]-ATP by radiometric analysis relative to control
[6] = biological target: Platelet-derived growth factor receptor alpha (Homo sapiens) (UniProt P16234); experiment: Inhibition of human recombinant PDGFRA at 100 nM by [gamma-33ATP] radiometric assay relative to control
[7] = biological target: Insulin receptor (Homo sapiens) (UniProt P06213); experiment: Inhibition of human recombinant IR at 100 nM by [gamma-33ATP] radiometric analysis relative to control
[8] = biological target: Epidermal growth factor receptor (Homo sapiens) (UniProt P00533); experiment: Inhibition of human recombinant EGFR at 100 nM in presence of [gamma33P]ATP by radiometric assay relative to control
Focal adhesion kinase 1 [9] = biological target: T1, Focal adhesion kinase 1 (Homo sapiens, UniProt Q05397); experiment: Inhibition of recombinant human N-terminal His-tagged FAK (393 to 698 residues) expressed in baculovirus infected Sf9 insect cells using Poly (4:1 Glu, Tyr) as substrate measured after 1 hr by ADP-glo luminescence assay
Target sequence in this assay (Q05397 whole entry, the tested form may be a part): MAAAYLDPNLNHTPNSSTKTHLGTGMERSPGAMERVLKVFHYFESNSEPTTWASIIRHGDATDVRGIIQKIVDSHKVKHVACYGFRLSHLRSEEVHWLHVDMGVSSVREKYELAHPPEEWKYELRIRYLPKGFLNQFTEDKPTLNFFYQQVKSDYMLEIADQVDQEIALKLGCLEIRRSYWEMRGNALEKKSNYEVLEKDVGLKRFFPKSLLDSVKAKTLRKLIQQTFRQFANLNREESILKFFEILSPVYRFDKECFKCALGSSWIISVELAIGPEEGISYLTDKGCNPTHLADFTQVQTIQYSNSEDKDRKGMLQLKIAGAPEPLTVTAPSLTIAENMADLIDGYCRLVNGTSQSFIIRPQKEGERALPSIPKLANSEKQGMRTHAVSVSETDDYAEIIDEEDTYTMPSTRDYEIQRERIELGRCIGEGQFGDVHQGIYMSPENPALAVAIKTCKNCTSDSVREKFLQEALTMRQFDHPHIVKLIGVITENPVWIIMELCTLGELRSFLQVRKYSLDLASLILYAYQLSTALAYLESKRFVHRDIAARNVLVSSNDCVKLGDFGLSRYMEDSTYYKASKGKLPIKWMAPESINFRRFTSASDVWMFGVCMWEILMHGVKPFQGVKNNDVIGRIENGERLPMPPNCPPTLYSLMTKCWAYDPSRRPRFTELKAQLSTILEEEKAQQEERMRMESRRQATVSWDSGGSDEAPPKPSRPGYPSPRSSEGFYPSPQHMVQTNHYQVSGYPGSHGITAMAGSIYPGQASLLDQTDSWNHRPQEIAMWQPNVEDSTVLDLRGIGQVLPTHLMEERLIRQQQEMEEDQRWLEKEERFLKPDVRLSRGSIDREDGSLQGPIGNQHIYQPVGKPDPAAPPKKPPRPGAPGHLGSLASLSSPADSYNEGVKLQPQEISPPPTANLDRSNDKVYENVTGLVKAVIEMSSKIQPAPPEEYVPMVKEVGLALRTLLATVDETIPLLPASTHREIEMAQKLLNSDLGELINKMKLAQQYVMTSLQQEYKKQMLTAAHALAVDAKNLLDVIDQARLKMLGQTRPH

[10] = biological target: T2, Serine/threonine-protein kinase AKT (Homo sapiens) (UniProt P31751+Q9Y243+P31749); experiment: Inhibition of human Akt at 100 nM in presence of [33P]-ATP by radiometric analysis relative to control; format: protein assay
Focal adhesion kinase 1 [11] = biological target: T1, Focal adhesion kinase 1; experiment: Inhibition of human recombinant FAK at 100 nM by [gamma32P]-ATP radiometric analysis relative to control
Target sequence in this assay (Q05397 2-1052 limits assumed): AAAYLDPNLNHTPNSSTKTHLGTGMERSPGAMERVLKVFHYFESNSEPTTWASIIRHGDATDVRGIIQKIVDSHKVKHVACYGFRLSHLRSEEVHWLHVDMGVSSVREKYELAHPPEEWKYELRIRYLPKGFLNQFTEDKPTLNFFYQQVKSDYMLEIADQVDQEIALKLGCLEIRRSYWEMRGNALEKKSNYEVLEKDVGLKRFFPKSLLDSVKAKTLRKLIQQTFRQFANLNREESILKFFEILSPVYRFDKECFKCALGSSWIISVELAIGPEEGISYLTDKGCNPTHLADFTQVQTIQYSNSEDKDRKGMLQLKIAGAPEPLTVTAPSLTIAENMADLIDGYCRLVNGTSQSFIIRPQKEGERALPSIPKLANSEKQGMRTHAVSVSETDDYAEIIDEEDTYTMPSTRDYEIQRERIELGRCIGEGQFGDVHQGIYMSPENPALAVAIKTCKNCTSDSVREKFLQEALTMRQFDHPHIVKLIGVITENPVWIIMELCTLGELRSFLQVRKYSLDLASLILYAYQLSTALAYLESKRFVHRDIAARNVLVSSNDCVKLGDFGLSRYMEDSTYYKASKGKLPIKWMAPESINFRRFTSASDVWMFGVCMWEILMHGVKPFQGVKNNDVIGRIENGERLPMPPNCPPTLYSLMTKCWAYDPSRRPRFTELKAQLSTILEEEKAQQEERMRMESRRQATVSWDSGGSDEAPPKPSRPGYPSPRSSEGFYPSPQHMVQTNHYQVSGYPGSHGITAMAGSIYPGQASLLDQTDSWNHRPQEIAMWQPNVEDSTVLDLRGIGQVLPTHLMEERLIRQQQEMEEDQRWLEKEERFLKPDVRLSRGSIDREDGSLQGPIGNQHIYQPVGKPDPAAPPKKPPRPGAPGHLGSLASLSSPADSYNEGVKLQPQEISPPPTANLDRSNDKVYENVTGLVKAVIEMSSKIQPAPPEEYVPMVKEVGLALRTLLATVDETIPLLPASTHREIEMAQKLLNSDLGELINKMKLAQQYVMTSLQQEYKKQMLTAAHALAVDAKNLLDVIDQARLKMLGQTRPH

Focal adhesion kinase 1 [12] = biological target: T1, Focal adhesion kinase 1; conditions: U-87 MG, dose microM 0.1-10, time 48.0 hrs
Target sequence in this assay (Q05397 2-1052 limits assumed): as above

U-251 = experiment: Cytotoxicity against human U251 cells assessed as reduction in cell viability incubated for 48 hrs by MTT assay; conditions: U-251, 48 h
Focal adhesion kinase 1 [13] = biological target: T1, Focal adhesion kinase 1; conditions: U-87 MG, dose microM 0.1-10, time 48.0 hrs; remark: listed apart in the source
Target sequence in this assay (Q05397 2-1052 limits assumed): as above

U-87 MG [14] = experiment: Induction of apoptosis in human U87MG cells assessed as early apoptotic cells at 10 uM incubated for 48 hrs by Annexin-V/propidium iodide staining based flow cytometric method (reference value: 4.55 %); format: functional, U-87MG ATCC
U-87 MG [15] = experiment: Induction of apoptosis in human U87MG cells assessed as live cells at 10 uM incubated for 48 hrs by Annexin-V/propidium iodide staining based flow cytometric method (reference value: 94.2%); format: functional, U-87MG ATCC
Focal adhesion kinase 1 [16] = biological target: T1, Focal adhesion kinase 1; conditions: U-87 MG, dose microM 0.1-5, time 48.0 hrs
Target sequence in this assay (Q05397 2-1052 limits assumed): as above

U-87 MG [17] = experiment: Induction of apoptosis in human U87MG cells assessed as late apoptotic cells at 10 uM incubated for 48 hrs by Annexin-V/propidium iodide staining based flow cytometric method (reference value: […]); format: functional, U-87MG ATCC
U-87 MG [18] = experiment: Inhibition of cell adhesion in human U87MG cells assessed as increase in appearance of stress fiber at 1 uM incubated for 48 hrs by FITC-conjugated phalloidin and TO-PRO3 staining based microscopic analysis; format: functional; conditions: U-87MG ATCC
U-87 MG [19] = experiment: Induction of cell cycle arrest in human U87MG cells assessed as increase in accumulation at G2 phase at 1 uM incubated for 48 hrs by propidium iodide staining based flow cytometry analysis; format: functional; conditions: U-87MG ATCC
Focal adhesion kinase 1 [20] = biological target: T1, Focal adhesion kinase 1; conditions: U-87 MG, dose microM 0.6-3, time 48.0 hrs
Target sequence in this assay (Q05397 2-1052 limits assumed): as above

U-87 MG [21] = experiment: Cytotoxicity against human U-87 MG cells assessed as reduction in cell viability incubated for 48 hrs by MTT assay
Focal adhesion kinase 1 [22] = biological target: T1, Focal adhesion kinase 1; conditions: U-87 MG, dose microM 0.1-10, time 48.0 hrs; remark: listed apart in the source
Target sequence in this assay (Q05397 2-1052 limits assumed): as above

U-87 MG [23] = experiment: Induction of cell cycle arrest in human U87MG cells assessed as accumulation in G2/M phase at 1 uM incubated for 48 hrs by propidium iodide staining based flow cytometry analysis (reference value: 28.9 +/- 2.1 %); format: functional, U-87MG ATCC; conditions: dose microM 1-10
U-87 MG [24] = experiment: Induction of cell cycle arrest in human U87MG cells assessed as accumulation at S phase at 1 uM incubated for 48 hrs by propidium iodide staining based flow cytometry analysis (reference value: 19.5 %); format: functional, U-87MG ATCC
A 172 = experiment: Cytotoxicity against human A172 cells assessed as reduction in cell viability incubated for 48 hrs by MTT assay; conditions: A 172, 48 h
U-87 MG [25] = experiment: Induction of apoptosis in human U87MG cells assessed as necrotic cells at 10 uM incubated for 48 hrs by Annexin-V/propidium iodide staining based flow cytometric method (reference value: […]); format: functional, U-87MG ATCC
U-87 MG [26] = experiment: Induction of cellular senescence in human U87MG cells assessed as flat and enlarged cells at 1 uM incubated for 48 hrs by TO-PRO-3 dye based immunocytochemistry analysis; format: functional, cell-based; conditions: U-87MG ATCC
U-87 MG [27] = experiment: Induction of cell cycle arrest in human U87MG cells assessed as accumulation at G0/G1 phase at 1 uM incubated for 48 hrs by propidium iodide staining based flow cytometry analysis (reference value: 51.6 +/- […]); format: functional, U-87MG ATCC
U-87 MG [28] = experiment: Inhibition of cell migration in human U87MG cells assessed as reduction of cell mobility at 0.2 to 1 uM measured at 24 to 48 hrs by scratch wound assay; format: functional, cell-based; conditions: U-87MG ATCC, dose microM 0.2-1, time hrs 24-48
U-87 MG [29] = experiment: Induction of cell cycle arrest in human U87MG cells assessed as multi-nucleated giant cells at 1 uM incubated for 48 hrs by TO-PRO-3 dye based immunocytochemistry analysis; format: functional; conditions: U-87MG ATCC
Focal adhesion kinase 1 [30] = biological target: T1, Focal adhesion kinase 1; experiment: Covalent inhibition of recombinant human N-terminal His-tagged FAK (393 to 698 residues) expressed in baculovirus infected Sf9 insect cells using Poly (4:1 Glu, Tyr) as substrate preincubated for 2 to 60 mins followed by substrate addition and measured after 1 hr by ADP-glo luminescence assay
Target sequence in this assay (Q05397 whole entry, the tested form may be a part): as the sequence (Q05397 whole entry, the tested form may be a part) above

Focal adhesion kinase 1 [31] = biological target: T1, Focal adhesion kinase 1; conditions: U-87 MG, dose microM 0.1-5, time 48.0 hrs; remark: listed apart in the source
[32] = biological target: T2, Serine/threonine-protein kinase AKT (Homo sapiens); experiment: Activation of AKT in human U87MG cells at 0.1 to 10 uM incubated for 48 hrs by Western blot analysis; format: cell-based; conditions: U-87 MG, dose microM 0.1-10, time 48.0 hrs
U-87 MG [33] = experiment: Activation of ERK in human U87MG cells at 0.1 to 10 uM incubated for 48 hrs by Western blot analysis; format: cell-based; conditions: dose microM 0.1-10, time 48.0 hrs

Insulin receptor (Homo sapiens), sequence (P06213 28-758 limits assumed): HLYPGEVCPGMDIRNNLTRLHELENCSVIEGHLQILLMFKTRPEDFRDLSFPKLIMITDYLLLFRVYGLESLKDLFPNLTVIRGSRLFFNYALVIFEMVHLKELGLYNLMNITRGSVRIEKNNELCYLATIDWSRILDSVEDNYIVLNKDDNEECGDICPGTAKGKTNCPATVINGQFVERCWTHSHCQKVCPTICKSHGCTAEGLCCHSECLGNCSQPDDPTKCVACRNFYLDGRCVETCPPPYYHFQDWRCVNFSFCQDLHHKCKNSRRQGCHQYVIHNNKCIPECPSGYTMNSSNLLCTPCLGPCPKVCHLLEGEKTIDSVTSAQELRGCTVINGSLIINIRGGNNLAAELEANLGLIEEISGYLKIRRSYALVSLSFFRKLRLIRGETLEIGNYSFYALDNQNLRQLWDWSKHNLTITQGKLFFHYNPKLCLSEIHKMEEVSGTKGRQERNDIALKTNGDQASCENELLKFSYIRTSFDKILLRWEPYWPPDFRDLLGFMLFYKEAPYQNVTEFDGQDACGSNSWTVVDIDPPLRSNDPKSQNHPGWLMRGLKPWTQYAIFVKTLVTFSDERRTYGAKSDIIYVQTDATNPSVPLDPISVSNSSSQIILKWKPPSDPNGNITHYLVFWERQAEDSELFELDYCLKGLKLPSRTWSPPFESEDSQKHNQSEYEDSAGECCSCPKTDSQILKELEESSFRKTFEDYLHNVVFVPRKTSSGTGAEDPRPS
Insulin receptor (Homo sapiens), sequence (P06213 763-1382 limits assumed): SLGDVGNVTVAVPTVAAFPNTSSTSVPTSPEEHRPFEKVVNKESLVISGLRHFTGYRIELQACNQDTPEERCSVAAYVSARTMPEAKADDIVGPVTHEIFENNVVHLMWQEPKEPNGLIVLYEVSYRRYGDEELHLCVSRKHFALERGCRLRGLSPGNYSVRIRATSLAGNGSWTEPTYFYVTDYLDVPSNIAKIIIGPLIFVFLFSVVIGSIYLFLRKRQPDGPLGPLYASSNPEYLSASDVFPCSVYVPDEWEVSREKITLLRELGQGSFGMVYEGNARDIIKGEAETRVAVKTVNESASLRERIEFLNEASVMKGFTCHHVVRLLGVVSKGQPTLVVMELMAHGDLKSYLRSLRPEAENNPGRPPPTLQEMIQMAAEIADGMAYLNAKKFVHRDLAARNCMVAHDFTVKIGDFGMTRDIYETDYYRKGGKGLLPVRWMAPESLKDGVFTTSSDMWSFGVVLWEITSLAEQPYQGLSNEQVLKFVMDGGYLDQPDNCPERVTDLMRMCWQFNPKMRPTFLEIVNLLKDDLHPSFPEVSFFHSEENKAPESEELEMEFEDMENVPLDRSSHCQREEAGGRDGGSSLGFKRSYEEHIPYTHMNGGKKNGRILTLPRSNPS
Proto-oncogene tyrosine-protein kinase Src (Homo sapiens), sequence (P12931 2-536 limits assumed): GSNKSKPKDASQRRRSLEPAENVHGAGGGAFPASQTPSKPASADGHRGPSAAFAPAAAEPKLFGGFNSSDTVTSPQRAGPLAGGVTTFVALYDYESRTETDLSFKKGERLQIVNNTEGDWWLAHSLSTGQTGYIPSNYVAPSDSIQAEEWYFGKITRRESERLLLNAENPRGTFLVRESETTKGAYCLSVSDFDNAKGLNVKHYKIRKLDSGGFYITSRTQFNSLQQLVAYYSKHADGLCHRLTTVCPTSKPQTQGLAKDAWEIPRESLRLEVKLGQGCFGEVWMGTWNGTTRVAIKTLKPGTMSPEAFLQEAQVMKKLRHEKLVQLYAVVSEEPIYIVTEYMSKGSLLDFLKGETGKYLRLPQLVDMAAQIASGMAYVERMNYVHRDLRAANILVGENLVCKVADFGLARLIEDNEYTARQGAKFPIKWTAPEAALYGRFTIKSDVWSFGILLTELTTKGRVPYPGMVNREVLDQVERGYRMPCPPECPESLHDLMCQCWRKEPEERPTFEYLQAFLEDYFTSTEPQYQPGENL
Fibroblast growth factor receptor 1 (Homo sapiens), sequence (P11362 22-822 limits assumed): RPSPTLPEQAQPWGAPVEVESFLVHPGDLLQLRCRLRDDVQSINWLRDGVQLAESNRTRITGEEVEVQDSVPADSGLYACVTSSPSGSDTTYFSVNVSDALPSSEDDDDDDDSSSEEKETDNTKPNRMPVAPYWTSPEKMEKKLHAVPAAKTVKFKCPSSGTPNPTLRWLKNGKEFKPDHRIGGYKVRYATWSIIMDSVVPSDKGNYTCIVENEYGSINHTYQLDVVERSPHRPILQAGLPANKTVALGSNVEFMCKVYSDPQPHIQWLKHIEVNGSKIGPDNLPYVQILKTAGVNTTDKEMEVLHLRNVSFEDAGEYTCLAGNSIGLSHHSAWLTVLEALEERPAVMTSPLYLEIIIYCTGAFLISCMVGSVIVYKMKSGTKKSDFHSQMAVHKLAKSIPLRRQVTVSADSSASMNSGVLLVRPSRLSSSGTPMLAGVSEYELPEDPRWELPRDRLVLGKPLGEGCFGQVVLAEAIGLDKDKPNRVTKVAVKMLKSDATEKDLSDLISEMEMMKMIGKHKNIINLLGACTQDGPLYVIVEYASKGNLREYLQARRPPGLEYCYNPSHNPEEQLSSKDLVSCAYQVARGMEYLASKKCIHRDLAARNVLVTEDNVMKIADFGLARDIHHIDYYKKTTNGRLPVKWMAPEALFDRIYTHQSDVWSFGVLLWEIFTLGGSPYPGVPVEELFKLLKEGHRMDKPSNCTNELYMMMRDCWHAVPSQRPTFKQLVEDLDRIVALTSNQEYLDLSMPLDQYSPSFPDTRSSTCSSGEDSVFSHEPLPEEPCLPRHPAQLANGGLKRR

Row | SMILES | inhibition [1] | inhibition [2] | inhibition [3] | inhibition [4] | inhibition (Homo sapiens) | inhibition [5] | IC50 (U-251) | Activity (U-87 MG [14]) | Activity (U-87 MG [17]) | inhibition (U-87 MG [18]) | Activity (U-87 MG [19]) | IC50 (U-87 MG [21]) | Activity (U-87 MG [23]) | Activity (U-87 MG [24]) | IC50 (A 172) | Activity (U-87 MG [25]) | Activity (U-87 MG [26]) | Activity (U-87 MG [27]) | inhibition (U-87 MG [28]) | Activity (U-87 MG [29]) | further results
1 | C=CC(=O)NCCNc1c(NCc2ccc(Nc3ncc(Cl)c(NCc4cccnc4N(C)S(C)(=O)=O)n3)cc2)c(=O)c1=O | 17.9% | 32.5% | 28.1% | 0% | 4.1% | 68.3% |  |  |  |  |  |  |  |  |  |  |  |  |  |  | inhibition [6]: 12.5%; inhibition [7]: 15.1%; inhibition [8]: 1.2%; IC50 (Focal adhesion kinase 1 [9]): 5.5 nM; inhibition [10]: 2.5%; inhibition (Focal adhesion kinase 1 [11]): 92.2%
2 | CNC(=O)c1ccccc1Nc1nc(Nc2ccc(N3CCOCC3)cc2OC)ncc1Cl |  |  |  |  |  |  | 6300 nM | 7.24% | 2.45% | Active | Active | 2900 nM | 66.1% | 19.5% | 8300 nM | 2.2% | Active | 16.2% | Active | Active | inhibition (Focal adhesion kinase 1 [12]): Dose-dependent effect; inhibition (Focal adhesion kinase 1 [13]): Dose-dependent effect; Activity (U-87 MG [15]): 88.1%; inhibition (Focal adhesion kinase 1 [16]): Active; inhibition (Focal adhesion kinase 1 [20]): Dose-dependent effect; inhibition (Focal adhesion kinase 1 [22]): Dose-dependent effect
3 | CNC(=O)c1ccccc1Nc1nc(Nc2ccc(CNc3c(NCCNC(=O)/C(C#N)=C/C4CC4)c(=O)c3=O)cc2)ncc1Cl |  |  |  |  |  |  | 1200 nM | 7.3% | 4.06% | Active | Active | 7200 nM | 83.1% | 8.8% | 890 nM | 1.39% | Active | 8.1% | Active | Active | Activity (U-87 MG [15]): 87.3%
4 | C=CC(=O)NCCNc1c(NCc2ccc(Nc3ncc(Cl)c(Nc4ccccc4C(=O)NC)n3)cc2)c(=O)c1=O | 52.1% | 87.1% | 91.5% | 0.2% | 14.2% | 97.6% | 220 nM | 6.05% | 2.45% | Active | Active | 2200 nM | 80.8% | 10% | 650 nM | 0.67% | Active | 9.2% | Active | Active | Ki (Focal adhesion kinase 1 [30]): 0.23 nM; inhibition (Focal adhesion kinase 1 [12]): Dose-dependent effect; inhibition (Focal adhesion kinase 1 [31]): Dose-dependent effect; Activity [32]: inactive; inhibition (Focal adhesion kinase 1 [13]): Dose-dependent effect; Activity (U-87 MG [15]): 90.8%; inhibition (Focal adhesion kinase 1 [16]): inactive; inhibition (Focal adhesion kinase 1 [20]): Dose-dependent effect; inhibition (Focal adhesion kinase 1 [22]): Dose-dependent effect; Activity (U-87 MG [33]): inactive; inhibition [6]: 91%; inhibition [7]: 57.6%; inhibition [8]: 47.2%; IC50 (Focal adhesion kinase 1 [9]): 0.6 nM; inhibition [10]: 3.7%; inhibition (Focal adhesion kinase 1 [11]): 98.1%
5 | C=CC(=O)NCCNc1c(NCc2ccc(Nc3ncc(C(F)(F)F)c(Nc4ccccc4C(=O)NC)n3)cc2)c(=O)c1=O | 55.6% | 88.3% | 94.4% | 0.1% | 21.8% | 99.8% | 150 nM | 5.6% | 3.85% | Active | Active | 3300 nM | 75.1% | 11.2% | 130 nM | 1.1% | Active | 13.7% | Active | Active | Ki (Focal adhesion kinase 1 [30]): 2.64 nM; inhibition (Focal adhesion kinase 1 [20]): Dose-dependent effect; inhibition [6]: 78.4%; inhibition [7]: 82.5%; inhibition [8]: 29%; IC50 (Focal adhesion kinase 1 [9]): 6.8 nM; inhibition [10]: 25.1%; inhibition (Focal adhesion kinase 1 [11]): 98.6%
